Values of other authors in US20110159084A1, “RALOXIFENE PHARMACEUTICAL FORMULATIONS” (DR. REDDY'S LABORATORIES LTD., priority 2008, published 2011).

How the values were obtained:
[1] = 37° C.
[2] = in vivo

solubility in simulated gastric fluid (SGF) USP ([1]; SGF USP) [µg/mL]	solubility in simulated intestinal fluid (SIF) USP ([1]; SIF USP) [µg/mL]	Compound	absolute bioavailability [2]	intra-subject pharmacokinetic variability [2]
3	2	Cl.O=C(c1ccc(OCCN2CCCCC2)cc1)c1c(-c2ccc(O)cc2)sc2cc(O)ccc12 [Raloxifene hydrochloride, methanone, [6-hydroxy-2-(4-hydroxyphenyl)benzo[b]thiene-3-yl]-[4-[2-(1-piperidinyl)ethoxy]phenyl]-, hydrochloride]	about 2%	–
–	–	Raloxifene	2%	approximately 30 % coefficient of variation
